Values joined by “and” are separate entries in the source; they are usually repeats but may differ in a detail not shown here. Equal values may be shown once.
Experiments:
Assay in all cases: apoptosis induction in cancer cell lines, late-stage follow-up, mechanism study for MCL1-BIM inhibitor project, imaging, DAPI staining, cell line panel, probe (AID 624396)
1780 MCl1 = conditions: DAPI nuclear morphology
1863 BCL-XL = conditions: DAPI nuclear morphology
DHL-10 = conditions: DAPI nuclear morphology, single IC50 determination, other campaign
DHL-6 = conditions: DAPI nuclear morphology
NCI-H929 = conditions: DAPI nuclear morphology

SMILES: CCN1CCN(C(c2ccc(C(F)(F)F)cc2)c2ccc3cccnc3c2O)CC1 (stereo not given)
- IC50 (1780 MCl1): 0.7 µM and 0.3 µM
- IC50 (1863 BCL-XL): 1.2 µM and 1.1 µM
- IC50 (DHL-10): > 25 µM
- IC50 (DHL-6): 2.2 µM and 3.3 µM
- IC50 (NCI-H929): 3.6 µM and 1.6 µM

From PubChem BioAssay AID624396 (The Scripps Research Institute Molecular Screening Center, 2012)
